Experimental data published in patent US9889115B2, “Fitness assay and associated methods” (priority 1998, dated 2018).
Read-outs that look alike come from different tables or passages of the source.

Key:
Type in all cases: cell-based
[1] = test system: multidrug-resistant HIV-1 clinical isolate, patient 10; assay: microbe, parasite or virus in culture; details: Patient Isolate 10
Experimental: (§1) The mutant multidrug-resistant HIV-1 strains corresponding to each patient, numbered 9-35, were genetically analyzed in terms of the nucleic acid sequences of the protease (PR) and a portion of the reverse transcriptase (RT) genes from which mutations in these enzymes were determined. The mutations in the protease and reverse transcriptase of the multidrug-resistant viruses isolated from each patient are shown below in Table 9b.

[2] = test system: multidrug-resistant HIV-1 clinical isolate, patient 11; assay: microbe, parasite or virus in culture; details: Patient Isolate 11
Experimental: as §1

[3] = test system: multidrug-resistant HIV-1 clinical isolate, patient 12; assay: microbe, parasite or virus in culture; details: Patient Isolate 12
Experimental: as §1

[4] = test system: multidrug-resistant HIV-1 clinical isolate, patient 13; assay: microbe, parasite or virus in culture; details: Patient Isolate 13
Experimental: as §1

[5] = test system: multidrug-resistant HIV-1 clinical isolate, patient 14; assay: microbe, parasite or virus in culture; details: Patient Isolate 14
Experimental: as §1

[6] = test system: multidrug-resistant HIV-1 clinical isolate, patient 15; assay: microbe, parasite or virus in culture; details: Patient Isolate 15
Experimental: as §1

[7] = test system: multidrug-resistant HIV-1 clinical isolate, patient 16; assay: microbe, parasite or virus in culture; details: Patient Isolate 16
Experimental: as §1

[8] = test system: multidrug-resistant HIV-1 clinical isolate, patient 17; assay: microbe, parasite or virus in culture; details: Patient Isolate 17
Experimental: as §1

[9] = test system: multidrug-resistant HIV-1 clinical isolate, patient 18; assay: microbe, parasite or virus in culture; details: Patient Isolate 18
Experimental: as §1

[10] = test system: multidrug-resistant HIV-1 clinical isolate, patient 19; assay: microbe, parasite or virus in culture; details: Patient Isolate 19
Experimental: as §1

[11] = test system: multidrug-resistant HIV-1 clinical isolate, patient 20; assay: microbe, parasite or virus in culture; details: Patient Isolate 20
Experimental: as §1

[12] = test system: multidrug-resistant HIV-1 clinical isolate, patient 21; assay: microbe, parasite or virus in culture; details: Patient Isolate 21
Experimental: as §1

[13] = test system: multidrug-resistant HIV-1 clinical isolate, patient 23; assay: microbe, parasite or virus in culture; details: Patient Isolate 23
Experimental: as §1

[14] = test system: multidrug-resistant HIV-1 clinical isolate, patient 27; assay: microbe, parasite or virus in culture; details: Patient Isolate 27
Experimental: as §1

[15] = test system: multidrug-resistant HIV-1 clinical isolate, patient 28; assay: microbe, parasite or virus in culture; details: Patient Isolate 28
Experimental: as §1

[16] = test system: multidrug-resistant HIV-1 clinical isolate, patient 29; assay: microbe, parasite or virus in culture; details: Patient Isolate 29
Experimental: as §1

[17] = test system: multidrug-resistant HIV-1 clinical isolate, patient 30; assay: microbe, parasite or virus in culture; details: Patient Isolate 30
Experimental: as §1

[18] = test system: multidrug-resistant HIV-1 clinical isolate, patient 31; assay: microbe, parasite or virus in culture; details: Human immunodeficiency virus 1; Patient Isolate 31
Experimental: as §1

[19] = test system: multidrug-resistant HIV-1 clinical isolate, patient 32; assay: microbe, parasite or virus in culture; details: Patient Isolate 32
Experimental: as §1

[20] = test system: multidrug-resistant HIV-1 clinical isolate, patient 33; assay: microbe, parasite or virus in culture; details: Patient Isolate 33
Experimental: as §1

[21] = test system: multidrug-resistant HIV-1 clinical isolate, patient 35; assay: microbe, parasite or virus in culture; details: Patient Isolate 35
Experimental: as §1

[22] = test system: multidrug-resistant HIV-1 clinical isolate, patient 9; assay: microbe, parasite or virus in culture; details: Patient Isolate 9
Experimental: as §1

[23] = test system: multidrug-resistant HIV-1 clinical isolate, patient 22; assay: IC50 against multidrug-resistant clinical isolates (Table 9a)
Experimental: as §1

[24] = test system: multidrug-resistant HIV-1 clinical isolate, patient 34; assay: as above; details: Human immunodeficiency virus 1
Experimental: as §1

wild-type HIV-1 (WT) = assay: IC50 against wild-type HIV-1 (Table 9a); details: (WT)
HIV-1LAI = assay: PHA-PBMC assay, p24 Gag protein production; details: Human immunodeficiency virus 1; HIV-1LAI, SI; PHA-PBMC, p24 (Table 3)
HIV-1BAL = assay: PHA-PBMC assay, p24 Gag protein production; details: Human immunodeficiency virus 1; HIV-1BAL, NSI; PHA-PBMC, p24 (Table 3)
HIV-1ERS104pre = assay: PHA-PBMC assay, p24 Gag protein production; details: Human immunodeficiency virus 1; HIV-1ERS104pre, SI; PHA-PBMC, p24
Experimental: (§2) The patient profiles are shown below in Table 2.
(§3) To determine protease inhibitory activity against multidrug resistant HIV, the IC50's were measured against a panel of clinically isolated mutant HIV isolates.
(§4) All drug sensitivities were performed in triplicate. In order to determine whether the HIV isolates were syncitium inducing (SI) or non-syncitium inducing (NSI), an aliquot of viral stock supernatant, containing 100 TCID50, was cultured with 1×10^5 MT-2 cells in a 12-well plate. Cultures were maintained for four weeks and were examined for syncytium formation twice a week.

[25] = test system: multidrug-resistant HIV-1 clinical isolate, patient 1; assay: PHA-PBMC assay, p24 Gag protein production; details: Human immunodeficiency virus 1; Patient/Isolate code 1; PHA-PBMC, p24
Experimental: as §2, §3, §4

[26] = test system: multidrug-resistant HIV-1 clinical isolate, patient 2; assay: PHA-PBMC assay, p24 Gag protein production; details: Human immunodeficiency virus 1; Patient/Isolate code 2; PHA-PBMC, p24
Experimental: as §2, §3, §4

[27] = test system: multidrug-resistant HIV-1 clinical isolate, patient 3; assay: PHA-PBMC assay, p24 Gag protein production; details: Human immunodeficiency virus 1; Patient/Isolate code 3; PHA-PBMC, p24
Experimental: as §2, §3, §4

[28] = test system: multidrug-resistant HIV-1 clinical isolate, patient 4; assay: PHA-PBMC assay, p24 Gag protein production; details: Human immunodeficiency virus 1; Patient/Isolate code 4; PHA-PBMC, p24
Experimental: as §2, §3, §4

[29] = test system: multidrug-resistant HIV-1 clinical isolate, patient 5; assay: PHA-PBMC assay, p24 Gag protein production; details: Human immunodeficiency virus 1; Patient/Isolate code 5; PHA-PBMC, p24
Experimental: as §2, §3, §4

[30] = test system: multidrug-resistant HIV-1 clinical isolate, patient 6; assay: PHA-PBMC assay, p24 Gag protein production; details: Human immunodeficiency virus 1; Patient/Isolate code 6; PHA-PBMC, p24
Experimental: as §2, §3, §4

[31] = test system: multidrug-resistant HIV-1 clinical isolate, patient 7; assay: PHA-PBMC assay, p24 Gag protein production; details: Human immunodeficiency virus 1; Patient/Isolate code 7; PHA-PBMC, p24
Experimental: as §2, §3, §4

[32] = test system: multidrug-resistant HIV-1 clinical isolate, patient 8; assay: PHA-PBMC assay, p24 Gag protein production; details: Human immunodeficiency virus 1; Patient/Isolate code 8; PHA-PBMC, p24
Experimental: as §2, §3, §4

HIV = assay: influence of human protein binding on antiviral activity
From the text: These failures have been ascribed, but not definitively proven, to be due to excessive binding to human plasma proteins, particularly serum albumin and AAG.

Cc1c(O)cccc1C(=O)N[C@@H](CSc1ccccc1)[C@H](O)CN1C[C@H]2CCCC[C@H]2C[C@H]1C(=O)NC(C)(C)C [Nel., Nelfinavir]
IC50 ([1]; Human immunodeficiency virus 1): > 1250 nM
IC50 ([2]; Human immunodeficiency virus 1): 30 nM
IC50 ([3]; Human immunodeficiency virus 1): > 1250 nM
IC50 ([4]; Human immunodeficiency virus 1): 470 nM
IC50 ([5]; Human immunodeficiency virus 1): 10 nM
IC50 ([6]; Human immunodeficiency virus 1): 470 nM
IC50 ([7]; Human immunodeficiency virus 1): 860 nM
IC50 ([8]; Human immunodeficiency virus 1): 520 nM
IC50 ([9]; Human immunodeficiency virus 1): 600 nM
IC50 ([10]; Human immunodeficiency virus 1): 500 nM
IC50 ([11]; Human immunodeficiency virus 1): 580 nM
IC50 ([12]; Human immunodeficiency virus 1): > 1250 nM
IC50 ([13]; Human immunodeficiency virus 1): 280 nM
IC50 ([14]; Human immunodeficiency virus 1): > 1250 nM
IC50 ([15]; Human immunodeficiency virus 1): > 1250 nM
IC50 ([16]; Human immunodeficiency virus 1): 670 nM
IC50 ([17]; Human immunodeficiency virus 1): 520 nM
IC50 [18]: 240 nM
IC50 ([19]; Human immunodeficiency virus 1): 220 nM
IC50 ([20]; Human immunodeficiency virus 1): 350 nM
IC50 ([21]; Human immunodeficiency virus 1): 480 nM
IC50 ([22]; Human immunodeficiency virus 1): 980 nM
IC50 ([23]; Human immunodeficiency virus 1): 100 nM
IC50 [24]: 260 nM
IC50 (wild-type HIV-1 (WT); Human immunodeficiency virus 1): 31 nM

Nc1ccn([C@H]2CC[C@@H](CO)O2)c(=O)n1 [DDC, 2′3′-dideoxycytidine]
IC50 (wild-type HIV-1 (WT)): 243 nM

CC(C)CN(C[C@@H](O)[C@H](Cc1ccccc1)NC(=O)O[C@H]1CCOC1)S(=O)(=O)c1ccc(N)cc1 [AMV, Amprenavir]
IC50 (HIV-1LAI): 19 nM
IC50 (HIV-1BAL): 14 nM
IC50 (HIV-1ERS104pre): 21 nM
IC50 [25]: 290 nM
IC50 [26]: 240 nM
IC50 [27]: 330 nM
IC50 [28]: 400 nM
IC50 [29]: 280 nM
IC50 [30]: 110 nM
IC50 [31]: 420 nM
IC50 [32]: 220 nM
fold of IC50 relative to (−) (HIV; (−), no added protein): 1 ×
fold of IC50 relative to (−) (HIV; Alb: human serum albumin (HAS, 300 μM)): 1 ×
IC50 (HIV; Human immunodeficiency virus 1, (−), no added protein): 29 nM
IC50 (HIV; Human immunodeficiency virus 1, Alb: human serum albumin (HAS, 300 μM)): 21 nM
IC50 (HIV; Human immunodeficiency virus 1, human alpha acid glycoprotein (AAG, 10 μM)): 180 nM
fold of IC50 relative to (−) (HIV; human alpha acid glycoprotein (AAG, 10 μM)): 6 ×

Cc1cn([C@H]2C[C@H](N=[N+]=[N-])[C@@H](CO)O2)c(=O)[nH]c1=O [AZT, 3′-azido-2′,3′-dideoxythymidine]
IC50 [1]: 20 nM
IC50 [2]: 110 nM
IC50 [3]: 70 nM
IC50 [4]: 170 nM
IC50 [5]: 640 nM
IC50 [6]: 200 nM
IC50 [7]: 970 nM
IC50 [8]: > 1250 nM
IC50 [9]: 550 nM
IC50 [10]: > 1250 nM
IC50 [11]: 1250 nM
IC50 [12]: > 1250 nM
IC50 [13]: 190 nM
IC50 [14]: 30 nM
IC50 [15]: > 1250 nM
IC50 [16]: > 1250 nM
IC50 [17]: 160 nM
IC50 [19]: 320 nM
IC50 [20]: 510 nM
IC50 [21]: 880 nM
IC50 [22]: 10 nM
IC50 ([23]; Patient Isolate 22, read-out: IC50): 1020 nM
IC50 (wild-type HIV-1 (WT)): 22 nM
